# According to US11649396B2, “Associative copolymers with hydrophobic quaternized (meth)acrylamide and (meth)acrylic acid derivatives” (BASF SE, priority 2018, dated 2023):
# Experiment: Solubility tests of monomer 1 with auxiliary surfactants (additives) in the monomer solution
# Format: physicochemical
# Settings: recipe 27 mol % sodium acrylate, 72.9 mol % acrylamide, 0.1 mol % 1; for Result (solubility of monomer 1 with additive): additive 2-20 eq relative to 1
# From the text: In order to solubilize monomer 1 the monomer was first dissolved in ethanol and then added to the monomer solution.
# These tests were done in first instance with 0.1 mol % of 1.
SMILES,Result (solubility of monomer 1 with additive),Result (solubility of monomer 1 without additive) (no additive)
"CCCCCCCCCCCCCCC(O)C[N+](C)(C)CCO.[Cl-] (stereo not shown) [Dehyquart E-CA, (2-hydroxyethyl)(2-hydroxyhexadecyl)dimethylammonium chloride]",Not soluble**,
"CCCCCCCCCCCCN(CCC(=O)[O-])CCC(=O)O.[Na+] [Deriphat 160 C, Sodium-N-lauryl-R-iminodipropionate]",Not soluble**,
"CCCCCCCCCCCCCC[N+](C)(C)C.[Br-] [Monomer C14TAB, Tetradecyltrimethylammonium bromide, reference compound]",Not soluble**,
C=C(C)C(=O)OCCC[N+](C)(C)CCCCCCCCCCCC [Monomer 1],,Not soluble**
